Data set [1] concerns intracranial Mel57-luc tumor xenografts. Kind of data set: Efficacy against intracranial Mel57-luc tumor xenografts. The data set is classed as in vivo, nude mice. The protocol:
Intracranial Mel57-luc (luciferase transfected subline) tumor xenografts in wild-type nude mice (WT) and mdr1ab knockout nude mice (MDR) were established according to the protocol below (see Kemper et al, Eur J Cancer 42:3294-3303, 2006).
The Mel57 cell line (University Medical Centre, Nijmegen, The Netherlands) is a human melanoma cell line and was cultured in MEM (Life Technologies Inc., Breda, The Netherlands) supplemented with 10% foetal calf serum, non-essential amino acids, streptomycin, penicillin and sodium pyruvate (all Life Technologies), and incubated at 37° C. and 5% CO2 in humidified air. The cell line was further transfected by standard protocols with lipofectamine using a pBS vector containing a β-actin driven luciferase gene coupled via an internal ribosome […] to GFP. After expansion, GFP bright cells were sorted to single cells by FACS, expanded and sublines tested for luciferase expression by an in vitro bioluminescence assay (Promega, Benelux BV, Leiden, The Netherlands). Three to five sublines showing the highest luminescence activity were tested in vivo for tumour take and intracranial growth behaviour. To retrieve tumour cells for injection, the cell culture was trypsinised (trypsin 0.05%; EDTA 0.02%, Life Technologies), washed two times with Hanks Balanced Saline Solution (HBSS, Life Technologies Inc.), counted and resuspended in an appropriate volume of HBSS. The single cell suspension was kept on ice until injection. […]
Mel57-luc cells (100,000 cells/2 μl) were injected stereotactically in the brain as described in detail in Kemper et al^14. […] The amount of bioluminescence in each animal was calculated relative to the first measurement when therapy was initiated (arbitrarily set at 100%) and was log converted prior to data analysis. Tumor volume was measured by bioluminescence activity (see Kemper et al, Eur J Cancer 42:3294-3303, 2006).

A short description of data set [2]: Plasma exposure of oral temozolomide in mice. Format: in vivo. As to conditions: mouse, 100 mg/kg, read-out: AUC0-7 h, plasma. The procedure:
We also established the drug exposure in wild-type (n=18) and Bcrp1/Mdr1ab knockout mice (n=19) receiving an oral dose of 100 mg/kg by gavage. Blood was sampled from the tail at 15, 30 min and 1, 4 and 7 h post drug administration to obtain a full curve from each animal.
Plasma and brain AUC0-7h values and standard errors were calculated by the linear trapezoidal rule using standard equations (14). The plasma half-life of temozolomide was calculated by linear regression analysis after log transformation of the concentration data using Microsoft Excel 2003. The brain-to-plasma ratio was calculated for each individual animal. The two-sided unpaired Student's t-test was used for statistical analysis of AUC values. Bonferroni's test for multiple comparisons was calculated using SPSS (v12.0.1; SPSS Inc, Chicago, Ill., USA) for brain and plasma levels and brain-to-plasma ratios determined at 2 h post temozolomide administration with the inhibitors and for analyzing the results of the in vivo efficacy study.

These results are taken from US20090170880A1, “Methods and Means for the Treatment of Cancer” (priority 2007, published 2009).

“Also recorded” adds a separate entry of the source. Like-named read-outs stand apart in the source and are kept apart here.

With `Cn1nnc2c(C(N)=O)ncn2c1=O` [temozolomide, 8-carbamoyl-3-methyl-[3H]-imidazo[5,1-d]-1,2,3,5-tetrazin-4-one], the “response to temozolomide, P-gp (Mdr1ab) knockout versus wild-type nude mice” value in data set [1] (oral 100 mg/kg for 5 consecutive days, bioluminescence, 100 mg/kg) was “greater reduction in tumor volume; also recorded: respond better”. The “difference in efficacy, Bcrp1/Mdr1ab knockout versus wild-type nude mice” value in data set [1] (oral 100 mg/kg/day×5 from day 7, bioluminescence) is given as “more pronounced”. In addition, the AUC(0-t) in data set [2] (Bcrp, Mdr1ab knockout mice) stood at 164 ± 4.5 µg·h/mL; in data set [2] (Wild-type mice) it was 154 ± 4.1 µg·h/mL.
